# Laboratory results as given in patent publication US5849745A, “N-benzylpiperazine compounds” (ADIR et Compagnie, priority 1996, dated 1998).
# Structures can show the parent of a compound that is named as a salt.
# Key:
# [1] = Ability to cross the blood/brain barrier, endothelial cell/astrocyte coculture model; type: in vitro ADME; conditions: in vitro coculture model, 37° C.; read-out: coefficient of permeability of the blood/brain barrier (Pe) (converted)
# Experimental: (§1) In order to study the functions of cerebral capillaries "in vitro", we developed a coculture model which allows the "in vivo" situation to be recreated. The endothelial cells of capillaries and astrocytes are cultured on either side of a filter.
# (§2) The endothelial cells are cultured in the upper compartment on the filter and the astrocytes in the lower compartment on the bottom of the Petri dish.
# (§3) On the day of the experiment, a solution of Ringer-HEPES (150 mM NaCl; 5.2 mM KCl; 2.2 mM CaCl2; 0.2 mM MgCl2 ·6H2 O; 6 mM NaHCO3; 5 mM HEPES; 2.8 mM glucose) is placed in the lower compartment of a 6-well dish (3 ml per well). A filter of covered with a monolayer of endothelial cells is transferred into the first well of the 6-well dish. 2 ml of the Ringer-HEPES solution containing the test compound are placed in the upper compartment of the filter. […] The experiments are performed in triplicate with filters covered with a monolayer of endothelial cells from cerebral capillaries or of collagen alone as control. They are agitated at 37° C. throughout the experiment.
# (§4) In the graph clearance=f(t), measurement of the slope gives the value "PSt" where PS=permeability×surface area of the monolayer (in μl/min) for the filters covered with cerebral capillary endothelial cells. "PSf" is calculated in the same way for the control filters. The permeability for the monolayer of endothelial cells alone (PSe) is given by: [formula]
# (§5) The coefficient of endothelial permeability "Pe" is calculated by dividing "PSe" by the surface area of the monolayer of endothelial cells. "Pe" is expressed in "cm/min".
# [2] = system: blood/brain barrier model (monolayer of cerebral capillary endothelial cells cocultured with astrocytes); assay: as above; type: in vitro ADME; conditions: concluded from the coefficient of permeability
# Experimental: as §1, §2, §3, §4, §5
# [3] = system: isolated rat heart (myocardium); assay: Ischemia-reperfusion sequence on isolated rat heart (contractile function and myocytic energetic metabolic response, 31P NMR); conditions: 5×10^-6 M; for intracellular pH at the end of the ischemia: control falls from pH 7.2 to pH 6.0
# Experimental: Study of the compounds of the invention on the contractile function of the myocardium and on the myocytic energetic metabolic response in the course of an ischemia-reinfusion sequence (isolated rat heart).
# This study was carried out by means of the use of ^31 P NMR spectroscopy, this technique allowing the monitoring, on an isolated and infused heart, of the variation in the contents of phosphorylated compounds (ATP, phosphocreatine, inorganic phosphate) and in the intracellular pH. It allows continuous investigation of a number of variables linked with the energetic state of the myocardium and allows a comparative evaluation of the antiischemic properties of several products.
# The isolated rat heart is infused aortically at a constant pressure (100 cm of water) for 30 min. and is then subjected to a partial global ischemia (coronary output reduced to 1.3% of the initial output) for 24 min., and, lastly, the heart is reinfused at constant pressure for 30 min.
# Throughout the experiment, NMR spectra corresponding to 3-minute-long acquisitions are recorded. After statistical exploitation, they serve to determine the intracardial concentration of ATP, of phosphocreatine (PC) and of inorganic phosphate (Pi), as well as to evaluate the intracellular pH.
# This procedure is intended to assess the effect of the presence of the product before and during the ischemia. To this end, the product is administered in the infusion medium after normoxic infusion for 20 min; it remains present in the infusion solution throughout the remainder of the experiment. A concentration of 5×10^-6 M was chosen for this comparative study.
# This is intended to evaluate the effects of the products on the heart function. The heart is infused under the conditions defined above, and a catheter connected to a pressure sensor is introduced into the left ventrical (via the atrium) in order to monitor the pressure changes developed by the LV. The heart rate and the heart output are also monitored.
# This is carried out in a superconducting magnet of 5.9 T in order to record the ^31 P NMR spectra. This series of experiments is intended to evaluate the impact of the product on the energetic equilibrium of the myocardium both in normoxia, in ischemia and in reinfusion.
# [4] = system: mitochondrial ATP synthesis (isolated rat liver mitochondria); assay: Mitochondrial energy (ATP) production during experimental calcium overload (cyclosporin A), isolated rat liver mitochondria; type: biochemical; conditions: 1×10^-6 M
# Experimental: Briefly, the mitochondria are extracted from rat livers. Mitochondrial respiration (1.5 mg of proteins placed in a reaction chamber) is brought about by the addition of sodium succinate, which is used as substrate (at 6×10^-4 M) and oxidative phosphorylation is triggered by the addition of ADP to the survival medium up to a final concentration of 1×10^-5 M. By recording the rates of oxygen consumption (in nmol/min./mg of mitochondrial protein) it is possible to calculate the characteristic parameters of the mitochondrial energy synthesis in the form of ATP.
Structure (SMILES),Papp [1],penetration into the brain (in words) [2],intracellular pH at the end of the ischemia [3],"cytoprotective effect during an ischemia-reinfusion sequence of the myocardium, compared with trimetazidine [3]",effect on the intracellular acidosis induced by the ischemia [3],restoration of mitochondrial ATP synthesis [4]
"COc1ccc(CN2CCN(Cc3ccccc3)CC2)c(OC(=O)[C@@H]2C[C@H]2c2ccccc2)c1OC (relative stereo) [Example 2, N-(3,4-Dimethoxy-2-E-phenylcyclopropylcarbonyloxy)benzyl-N'-benzylpiperazine dihydrochloride]",> 16.7 ×10⁻⁶ cm/s,penetrate the brain very easily,,,,
"CCN1CCN(Cc2ccc(OC)c(OC)c2OC(=O)[C@H]2C[C@@H]2c2ccccc2)CC1 [Example 19, N-(3,4-Dimethoxy-2-E-(S,S)-phenylcyclopropylcarbonyloxy)benzyl-N'-ethylpiperazine dihydrochloride]",> 16.7 ×10⁻⁶ cm/s,penetrate the brain very easily,,,,
"COc1ccc(CN2CCNCC2)c(OC)c1OC [trimetazidine, 2,3,4-trimethoxybenzylpiperazine, reference compound]",7 ×10⁻⁶ cm/s,penetrates poorly into the brain,6.35,,,
"CCN1CCN(Cc2ccc(OC)c(OC)c2OC(=O)[C@@H]2C[C@H]2c2ccccc2)CC1 [Example 17, N-(3,4-Dimethoxy-2-E-(R,R)-phenylcyclopropylcarbonyloxy)benzyl-N'-ethylpiperazine dihydrochloride]",> 16.7 ×10⁻⁶ cm/s,penetrate the brain very easily,,,,
"CCN1CCN(Cc2ccc(OC)c(OC)c2OC(=O)[C@@H]2C[C@H]2c2ccccc2)CC1 (relative stereo) [Example 1, N-(3,4-Dimethoxy-2-E-phenylcyclopropylcarbonyloxy)benzyl-N'-ethylpiperazinedihydrochloride]",> 16.7 ×10⁻⁶ cm/s,penetrate the brain very easily,6.5,greatly increased,particularly pronounced,100%
